Measurements: patent US11999794B2, “Human mesothelin chimeric antigen receptors and uses thereof” (Novartis AG, priority 2013, dated 2024)
“Also recorded” adds a separate entry of the source. Marks after values point to notes of the source that are not given here.

Legend:
[1] = Questionnaires on energy and exercise one year after dosing; assay type: in vivo, human; conditions: 0.5 mg daily cohort
[2] = system: A/H1N1/California/07/2009; assay: Anti-influenza IgG and IgM levels in serum; assay type: in vivo, human; conditions: vs placebo cohorts
Experimental: The trial was observer-blind because the placebo in the RAD001 0.5 mg daily and 20 mg weekly cohorts differed slightly from the RAD001 tablets in those cohorts. […] The treatment duration for all cohorts was 6 weeks during which time subjects underwent safety evaluations in the clinic every 2 weeks. After subjects had been dosed for 4 weeks, RAD001 steady state levels were measured pre-dose and at one hour post dose. […] Antibody titers to the 3 influenza vaccine strains as well as to 2 heterologous strains (A/H1N1 strain A/New Jersey/8/76 and A/H3N2 strain A/Victoria/361/11) were measured by standard hemagglutination inhibition assay (Kendal, A P et al. (1982) Concepts and procedures for laboratory-based influenza surveillance. Atlanta: Centers for Disease Control and Prevention B17-B35). Levels of IgG and IgM specific for the A/H1N1/California/07/2009 were measured in serum samples taken before and 4 weeks after influenza vaccination as described previously (Spensieri, F. et al. (2013) Proc. Natl. Acad. Sci. USA 110:14330-14335). Results were expressed as fluorescence intensity.

[3] = system: A/H3N2 strain A/Victoria/361/11; assay: HI titers and seroconversion, heterologous strain; assay type: in vivo, human; conditions: for Percentage of subjects who seroconvert to heterologous strain A/H3N2 A/Victoria/361/11: 4 weeks after seasonal influenza vaccination, odds ratio vs placebo p < 0.05
hMSLN296-588 = molecular target: T1, hMSLN296-588 (Homo sapiens, UniProt Q13421, N388Q/N488Q/N515Q); assay: Hydrogen-deuterium exchange mass spectrometry epitope mapping; assay type: binding; conditions: amino acid position 297 to 464
T1 construct: secretion signal […]; made in house; host or cells: Expi293 (alone, or co-expressed with scFv M5)
T1 sequence (Q13421 with tags, fused parts or gaps N388Q/N488Q/N515Q): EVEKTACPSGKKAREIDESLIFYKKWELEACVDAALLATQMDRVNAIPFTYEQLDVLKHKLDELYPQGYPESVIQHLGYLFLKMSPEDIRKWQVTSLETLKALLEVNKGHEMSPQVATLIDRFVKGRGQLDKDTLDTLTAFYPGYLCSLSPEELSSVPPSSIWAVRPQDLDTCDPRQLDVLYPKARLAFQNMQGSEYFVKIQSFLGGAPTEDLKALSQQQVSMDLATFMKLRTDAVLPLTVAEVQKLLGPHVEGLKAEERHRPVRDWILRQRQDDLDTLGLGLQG
Description: Hydrogen-deuterium exchange (HDx) in combination with mass spectrometry (MS) (Woods V L, Hamuro Y (2001) High Resolution, High-Throughput Amide Deuterium Exchange-Mass Spectrometry (DXMS) Determination of Protein Binding Site Structure and Dynamics: Utility in Pharmaceutical Design. J. Cell. Biochem. Supp.; 84(37): 89-98.) was used to map the putative binding site of scFv antibodies M5 and SS1 on human mesothelin(296-588), referred to herein as hMSLN296-588 (SEQ ID No 278). In HDx, exchangeable amide hydrogens of proteins are replaced by deuterium. This process is sensitive to protein structure/dynamics and solvent accessibility and, therefore, able to report on locations that undergo a decrease in deuterium uptake upon ligand binding.
HDx/MS experiments were performed using methods similar to those described in the literature (Chalmers M J, Busby S A, Pascal B D, He Y, Hendrickson C L, Marshall A G, Griffin P R (2006) Probing protein ligand interactions by automated hydrogen/deuterium exchange mass spectrometry. Anal. Chem.; 78(4): 1005-1014.Chalmers, 2006). The experiments were performed on a Waters HDx/MS platform, which included a LEAP autosampler, nanoACQUITY UPLC, and Synapt G2 mass spectrometer. […]

Row | Molecule | energy and exercise ability [1] | post-vaccination anti-influenza IgM and IgG levels [2] | increase in seroconversion rate, H3N2 heterologous strain ([3]; 5 and 20 mg weekly dosing cohorts) | Percentage of subjects who seroconvert to heterologous strain A/H3N2 A/Victoria/361/11 ([3]; RAD001 5 mg weekly) [%*] | Percentage of subjects who seroconvert to heterologous strain A/H3N2 A/Victoria/361/11 ([3]; RAD001 20 mg weekly) [% *] | H3N2 seroconversion rate, heterologous strain ([3]; pooled RAD001 cohorts, p=0.007 vs placebo) [%] | mesothelin peptides significantly protected from deuterium uptake (hMSLN296-588)
1 | CO[C@H]1C[C@@H]2CC[C@@H](C)[C@@](O)(O2)C(=O)C(=O)N2CCCC[C@H]2C(=O)O[C@H]([C@H](C)C[C@@H]2CC[C@@H](OCCO)[C@H](OC)C2)CC(=O)[C@H](C)/C=C(\C)[C@@H](O)[C@@H](OC)C(=O)[C@H](C)C[C@H](C)/C=C/C=C/C=C/1C [RAD001, (1R,9S,12S,15R,16E,18R,19R,21R,23 S,24E,26E,28E,30S,32S,35R)-1,18-dihydroxy-12-{(1R)-2-[(1 S,3R,4R)-4-(2-hydroxyethoxy)-3-methoxycyclohexyl]-1-methylethyl}-19,30-dimethoxy-15,17,21,23,29,35-hexamethyl-11,36-dioxa-4-aza-tricyclo[30.3.1.04,9]hexatriaconta-16,24,26,28-tetraene-2,3,10,14,20-pentaone] | increased energy and exercise ability as compared to placebo | No significant difference; also recorded: did not differ | statistically significant | 39 | 40 | 39 | –
2 | M5: human anti-mesothelin scFv SEQ ID NO: 43; full CAR SEQ ID NO: 67 (protein) scFv: QVQLVQSGAEVEKPGASVKVSCKASGYTFTDYYMHWVRQAPGQGLEWMGWINPNSGGTNYAQKFQGRVTMTRDTSISTAYMELSRLRSDDTAVYYCASGWDFDYWGQGTLVTVSSGGGGSGGGGSGGGGSGGGGSDIVMTQSPSSLSASVGDRVTITCRASQSIRYYLSWYQQKPGKAPKLLIYTASILQNGVPSRFSGSGSGTDFTLTISSLQPEDFATYYCLQTYTTPDFGPGTKVEIK | – | – | – | – | – | – | no protection
